Here are results for 36 molecules from patent publication US6875743B1, “Cell adhesion inhibitors” (Biogen, Inc., priority 1996, dated 2005).

Numbered stars: 1 amine (or outer) side, 2 acyl side, 3 side chain; on linkers, the order of the positions; unused ones are H or OH. Square brackets hold non-standard residues; d marks the D form. Peptide text beside a SMILES is read from it. * marks the point of attachment. X4 = COc1nc(CC(=O)[*:2])ccc1N[*:1]; Quinaldoyl = O=C(c1ccc2ccccc2n1)*; X1 = O=C(Cc1ccc(N[*:1])cc1)[*:2]; NH(2-Me-phenyl) = Cc1ccccc1N*; Nle = CCCC[CH](N)C(=O)O; PhAc = O=C(Cc1ccccc1)*; CO = O=C([*:1])[*:2]; Bz = O=C(c1ccccc1)*; NHPh = c1ccc(N*)cc1 Where only a bound is given, the exact number is not on record here.

The target in the assay is T1, VLA4 (Homo sapiens, UniProt P05556+P13612).
T1 construct: endogenous in cells; host or cells: Ramos cells
T1 sequence (P13612 34-1032): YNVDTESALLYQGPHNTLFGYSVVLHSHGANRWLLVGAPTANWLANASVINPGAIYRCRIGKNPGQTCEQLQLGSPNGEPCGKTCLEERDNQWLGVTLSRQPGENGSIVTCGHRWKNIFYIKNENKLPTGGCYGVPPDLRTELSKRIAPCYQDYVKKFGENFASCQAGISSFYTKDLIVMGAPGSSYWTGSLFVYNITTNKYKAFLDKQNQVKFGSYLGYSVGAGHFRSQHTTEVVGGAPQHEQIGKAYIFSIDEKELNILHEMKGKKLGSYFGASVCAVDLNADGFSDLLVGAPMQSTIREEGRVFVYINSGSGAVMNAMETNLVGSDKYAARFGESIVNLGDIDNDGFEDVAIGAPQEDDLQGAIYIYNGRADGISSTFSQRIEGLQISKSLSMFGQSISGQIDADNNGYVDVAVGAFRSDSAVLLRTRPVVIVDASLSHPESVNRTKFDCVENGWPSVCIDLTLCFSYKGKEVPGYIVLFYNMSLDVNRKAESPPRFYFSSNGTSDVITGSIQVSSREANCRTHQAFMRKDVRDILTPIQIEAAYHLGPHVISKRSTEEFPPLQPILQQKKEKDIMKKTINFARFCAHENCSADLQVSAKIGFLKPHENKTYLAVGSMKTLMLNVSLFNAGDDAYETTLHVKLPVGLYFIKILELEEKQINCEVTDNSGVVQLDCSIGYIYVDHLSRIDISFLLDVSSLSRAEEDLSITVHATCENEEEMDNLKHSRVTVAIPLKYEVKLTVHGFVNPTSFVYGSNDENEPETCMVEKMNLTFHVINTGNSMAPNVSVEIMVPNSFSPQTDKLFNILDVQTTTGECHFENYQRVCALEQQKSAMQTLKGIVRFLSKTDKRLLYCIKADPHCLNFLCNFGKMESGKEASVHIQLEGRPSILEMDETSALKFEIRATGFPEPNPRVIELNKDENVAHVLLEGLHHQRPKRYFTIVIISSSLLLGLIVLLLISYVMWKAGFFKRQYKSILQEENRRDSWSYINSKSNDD
T1 sequence (P05556 21-798): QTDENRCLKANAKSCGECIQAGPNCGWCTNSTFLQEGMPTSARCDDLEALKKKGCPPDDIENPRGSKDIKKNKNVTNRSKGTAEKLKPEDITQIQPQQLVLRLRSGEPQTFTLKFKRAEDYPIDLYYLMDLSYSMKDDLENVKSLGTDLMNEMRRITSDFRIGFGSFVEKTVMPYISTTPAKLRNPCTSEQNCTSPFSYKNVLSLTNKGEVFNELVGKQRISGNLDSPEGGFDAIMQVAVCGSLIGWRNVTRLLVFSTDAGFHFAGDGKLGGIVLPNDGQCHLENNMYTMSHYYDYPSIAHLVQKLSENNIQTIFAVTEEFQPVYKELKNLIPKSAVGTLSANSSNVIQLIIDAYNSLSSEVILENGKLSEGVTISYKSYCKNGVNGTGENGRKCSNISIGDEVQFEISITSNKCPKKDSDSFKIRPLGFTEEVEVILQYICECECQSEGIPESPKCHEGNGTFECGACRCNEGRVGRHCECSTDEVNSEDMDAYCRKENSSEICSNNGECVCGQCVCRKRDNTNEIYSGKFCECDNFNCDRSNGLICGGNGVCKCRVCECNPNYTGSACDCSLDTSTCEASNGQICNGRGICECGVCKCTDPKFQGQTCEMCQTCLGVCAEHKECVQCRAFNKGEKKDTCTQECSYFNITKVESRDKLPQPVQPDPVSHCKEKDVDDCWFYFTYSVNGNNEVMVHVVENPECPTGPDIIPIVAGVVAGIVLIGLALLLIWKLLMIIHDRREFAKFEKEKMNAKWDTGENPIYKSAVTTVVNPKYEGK
The experiment in a line: Inhibition of VLA4-dependent adhesion to BSA-CS1. The format is cell-based. Particulars: binding of BCECF-labelled Ramos cells to BSA-CS1 coated wells, 2 mM MnCl2; read-out: IC50. The text has this: For example, the cell adhesion inhibitory activity of these compounds may be measured by determining the concentration of inhibitor required to block the binding of VLA-4-expressing cells to fibronectin- or CS1-coated plates. In this assay microtiter wells are coated with either fibronectin (containing the CS-1 sequence) or CS-1. If CS-1 is used, it must be conjugated to a carrier protein, such as bovine serum albumin, in order to bind to the wells. Once the wells are coated, varying concentrations of the test compound are then added together with appropriately labelled, VLA-4-expressing cells. Alternatively, the test compound may be added first and allowed to incubate with the coated wells prior to the addition of the cells. The cells are allowed to incubate in the wells for at least 30 minutes. Following incubation, the wells are emptied and washed. Inhibition of binding is measured by quantitating the fluorescence or radioactivity bound to the plate for each of the various concentrations of test compound, as well as for controls containing no test compound.
VLA-4-expressing cells that may be utilized in this assay include Ramos cells, Jurkat cells, A375 melanoma cells, as well as human peripheral blood lymophocytes (PBLs). The cells used in this assay may be fluorescently or radioactively labelled.
This assay was used to assess the potency of VLA4-directed inhibitory compounds of this invention.
We dissolved BSA-SMCC (Pierce Chemical, Rockford, Ill.; Catalog #77115) in H2O at a concentration of 10 mg/mL. [SEQ ID NO:4]: […](“Cys-Tyr-CS1 peptide”), which we synthesized by conventional solid phase chemistry and purified by HPLC, was dissolved in 10 mM HEPES pH 5, 50 mM NaCl and 0.1 mM EDTA also at a concentration of 10 mg/mL. We then mixed 500 μL of BSA-SMCC, 250 μL of Cys-Tyr-CS1 peptide and 75 μL of 1 mM HEPES pH 7.5 and allowed the conjugation reaction to proceed for 30 minutes. We stopped the reaction by adding 1 μL of beta-mercaptoethanol. Samples were analyzed for cross-linking by SDS-PAGE.
We coated the wells of a Linbro titertek polystyrene 96-well flat bottom plate (Flow Laboratories, Maclean, Va.; catalog #76-231-05) with 100 μL of the above-described BSA-CS1 solution diluted to 1 μg/mL in 0.05 M NaHCO3 (15 mM NaHCO3, 35 mM Na2CO3) pH 9.2. Some wells were not coated with CS1 in order to assess non-specific cell binding (NSB). The plate was then incubated overnight at 4° C.
Following this incubation, the contents of the wells were removed by inverting and blotting the plate. All of the wells were then blocked with 100 μL of 1% BSA in PBS, 0.02% NaN3, for a minimum of one hour at room temperature.
Ramos cells are grown, maintained and labelled in RPMI 1640 culture medium containing 1% BSA. Just prior to running the assay, we added 2′,7′-bis-(2-carboxyethyl)-5 (and -6) carboxyfluorescein acetoxymethyl ester (“BCECF-AM”; Molecular Probes Inc., Eugene, Oreg.; catalog #B-1150) to a final concentration of 2 μM to a culture of Ramos cells (4×10^6 cells/mL). We incubated the cells for 20 minutes at 37° C.
Following labelling, the cells were washed twice in assay buffer (24 mM TRIS, 137 mM NaCl, 2.7 mM KCl, pH 7.4, containing 0.1% BSA and 2 mM glucose) to remove any cations originating from the culture medium. The cells were then resuspended in assay buffer to 4×10^6 cells/mL and 2 mM MnCl2 was added to upregulate VLA4 on the surface of the cells.
Immediately prior to running the assay, we removed the BSA blocking solution from the 96-well plates and washed the wells with 100 μL of assay buffer. We then added to each well 25 μL of test cell adhesion inhibitory compound at 2× the final concentration and 25 μL of the labelled Ramos cells. […] Each concentration of compound was tested in triplicate. The compound and cells are allowed to incubate for 30 minutes at room temperature.
For `Cc1ccccc1NC(=O)Nc1ccc(CC(=O)N2CCC[C@H]2C(=O)N[C@@H](CCC(=O)O)C(=O)N[C@H](CC(C)C)C(=O)O)cc1` [Compound 415], the IC50 lay within 50 to 10000 nM.
As for `Cc1ccccc1NC(=O)Nc1ccc(CC(=O)N[C@@H](CC(C)C)C(=O)N[C@@H](CC(=O)O)C(=O)N[C@H](CC(N)=O)C(N)=O)cc1` [Compound 237], the IC50 is less than 50 nM.
Consider `CC[C@H](C)[C@H](NC(=O)CCc1ccc(O)cc1)C(=O)N[C@H](CC(=O)O)C(=O)NCC(C)C` [Compound 16], for which the IC50 was more than 10000 nM.
Turning to `Cc1ccccc1NC(=O)Nc1ccc(CC(=O)NC(CC(C)C)C(=O)NC(CC(=O)O)C(=O)NC(C(=O)N2CCOCC2)C(C)C)cc1` (stereo not drawn) [Compound 329], the IC50 was less than 50 nM.
Regarding `Cc1ccccc1NC(=O)Nc1ccc(CC(=O)N[C@H](CC(C)C)C(=O)N[C@@H](CC(=O)O)C(=O)N[C@H](C(N)=O)C(C)C)cc1` [Compound 288], the IC50 was less than 50 nM.
Take `Cc1ccccc1NC(=O)Nc1ccc(CC(=O)N[C@@H](CC(C)C)C(=O)N[C@@H](CC(=O)O)C(=O)N[C@H](C(=O)N2CCC[C@H]2C(=O)N[C@@H](CO)C(=O)O)C(C)C)cc1` [Compound 337] ({NH(2-Me-phenyl)-CO}-[X1]LDVPS-OH): the IC50 was less than 50 nM.
`CC(C)CC(NC(=O)c1cc2ccccc2cn1)C(=O)NC(CC(=O)O)C(=O)NCC1CCCCC1` (stereo not drawn) [Compound 11]: the IC50 was more than 10000 nM.
Under `Cc1ccccc1NC(=O)Nc1ccc(CC(=O)N[C@@H](CC(C)C)C(=O)N[C@@H](CC(=O)O)C(=O)N[C@H](CO)C(N)=O)cc1` [Compound 240] stands less than 50 nM; under `CC(C)C[C@H](NC(=O)c1ccc(-c2ccccn2)s1)C(=O)N[C@@H](CC(=O)O)C(=O)N[C@H](C(=O)O)C(C)C` [Compound 407], more than 10000 nM.
As for `CC(C)CC(NC(=O)Cc1ccc(NC(=O)Nc2ccccc2)cc1)C(=O)NC(CC(=O)O)C(=O)NC(C(=O)N1CCCC1C(N)=O)C(C)C` (stereo not drawn) [Compound 201] ({NHPh-CO}-[X1]LDVP-NH2; configuration not given here), the IC50 lay within 50 to 10000 nM.
Turning to `Cc1ccccc1NC(=O)Nc1ccc(CC(=O)N[C@@H](CCC(N)=O)C(=O)N[C@@H](CC(=O)O)C(=O)N[C@@H](CC(C)C)C(N)=O)cc1` [Compound 298], the IC50 was less than 50 nM.
Regarding `CC(C)CC(NC(=O)CCc1ccc(O)cc1)C(=O)NC(CC(=O)O)C(=O)NCC1CCCCC1` (stereo not drawn) [Compound 14], the 50% inhibitory concentration (IC50) was more than 10000 nM.
Turning to `CCCCC(NC(=O)C(NC(=O)C(CC(=O)O)NC(=O)C(CC(C)C)NC(=O)c1ccc2ccccc2n1)C(C)C)C(=O)O` (stereo not drawn) [Compound 44] (Quinaldoyl-LDV[Nle]-OH; configuration not given here), the IC50 lay in the range of 50 to 10000 nM.
Consider `CCC(C)C(NC(=O)C(CC(=O)O)NC(=O)C(CC(C)C)NC(=O)Cc1ccccc1)C(N)=O` (stereo not drawn) [Compound 53] (PhAc-Leu-Asp-Ile-NH2; configuration not given here), for which the IC50 is more than 10000 nM.
In the case of `CCCCC(NC(=O)C(NC(=O)C(CC(=O)O)NC(=O)C(CC(C)C)NC(=O)Cc1ccccc1)C(C)C)C(=O)O` (stereo not drawn) [Compound 43] (PhAc-LDV[Nle]-OH; configuration not given here), the IC50 was in the range of 50 to 10000 nM.
Regarding `CNC(=O)[C@H](CCC(=O)O)NC(=O)[C@@H]1CCCN1C(=O)Cc1ccc(NC(=O)Nc2ccccc2C)cc1` [Compound 413], the half-maximal inhibitory concentration (IC50) was in the range of 50 to 10000 nM.
As for `CSCC[C@H](NC(=O)[C@H](CC(=O)O)NC(=O)[C@H](CC(C)C)NC(=O)Cc1ccc(NC(=O)Nc2ccccc2C)cc1)C(N)=O` [Compound 236], the IC50 is less than 50 nM.
Turning to `CCCC(NC(=O)C(CC(=O)O)NC(=O)C(CC(C)C)NC(=O)c1ccc2ccccc2n1)C(=O)NC` (stereo not drawn) [Compound 52], the IC50 is more than 10000 nM.
For `Cc1ccccc1NC(=O)Nc1ccc(CC(=O)N[C@@H](CO)C(=O)N[C@@H](CC(=O)O)C(=O)N[C@H](CC(N)=O)C(N)=O)cc1` [Compound 282], the IC50 was less than 50 nM.
The same measure for `Cc1ccccc1NC(=O)Nc1ccc(CC(=O)N2CCC[C@H]2C(=O)N[C@@H](CC(=O)O)C(=O)N[C@H](C(N)=O)C(C)C)cc1` [Compound 243]: less than 50 nM; for `Cc1ccccc1NC(=O)Nc1ccc(CC(=O)N[C@H](C(=O)N[C@@H](CC(=O)O)C(=O)N[C@@H](CC(C)C)C(N)=O)[C@@H](C)O)cc1` [Compound 253]: less than 50 nM; for `Cc1ccccc1NC(=O)Nc1ccc(CC(=O)N[C@H](CC(C)C)C(=O)N[C@@H](CC(=O)O)C(=O)N[C@H](CC(N)=O)C(N)=O)cc1` [Compound 293]: less than 50 nM.
Turning to `CCC(C)C(NC(=O)CCc1ccc(O)cc1)C(=O)NC(CC(=O)O)C(=O)NCC(C)C` (stereo not drawn) [Compound 17], the IC50 is more than 10000 nM.
As to `Cc1ccccc1NC(=O)Nc1ccc(CC(=O)N[C@H](C(=O)N[C@@H](CCC(=O)O)C(=O)N[C@@H](CC(=O)O)C(N)=O)[C@@H](C)O)cc1` [Compound 314], the IC50 was less than 50 nM.
Turning to `Cc1ccccc1NC(=O)Nc1ccc(CC(=O)N[C@H](C(=O)N[C@@H](CC(=O)O)C(=O)N[C@@H](Cc2c[nH]c3ccccc23)C(N)=O)[C@@H](C)O)cc1` [Compound 261], the IC50 was less than 50 nM.
The same measure for `COC(=O)[C@@H](NC(=O)[C@H](CC(=O)O)N1CCC(NC(=O)OCc2ccccc2)C1=O)C(C)C` (stereo partly drawn) [Compound 334]: more than 10000 nM; for `Cc1ccccc1NC(=O)Nc1ccc(CC(=O)N2CCC[C@H]2C(=O)N[C@@H](CC(=O)O)C(=O)O)cc1` [Compound 342]: more than 10000 nM; for `CC(C)C[C@H](NC(=O)[C@H](Cc1ccccc1)NC(=O)c1ccccc1)C(=O)N[C@@H](CC(=O)O)C(=O)N[C@H](C(=O)O)C(C)C` [Compound 153] (Bz-FLDV-OH): more than 10000 nM.
The same measure for `CNC(=O)C(NC(=O)C(CC(=O)O)NC(=O)C(Cc1ccc(O)cc1)NC(=O)Cc1ccccc1)C(C)C` (stereo not drawn) [Compound 129] (PhAc-Tyr-Asp-Val-NHMe; configuration not given here): more than 10000 nM; for `CC(C)C[C@H](NC(=O)C1COc2ccc(Cl)cc2C1)C(=O)N[C@@H](CC(=O)O)C(=O)N[C@H](C(=O)O)C(C)C` (stereo partly drawn) [Compound 386]: more than 10000 nM.
With `COc1cccc(CC(=O)N[C@@H](CC(C)C)C(=O)N[C@@H](CC(=O)O)C(=O)N[C@H](C(=O)O)C(C)C)c1` [Compound 367], the IC50 was more than 10000 nM.
Take `CC(C)CC(NC(=O)CCc1ccccc1)C(=O)NC(CC(=O)O)C(=O)NCC1CCCCC1` (stereo not drawn) [Compound 24]: the IC50 is more than 10000 nM.
Under `CC(C)CC(NC(=O)Cc1ccc(NC(=O)Nc2ccccc2)cc1)C(=O)NC(CC(=O)O)C(=O)NC(C(=O)N1CCCC1C(N)=O)C(C)C` (stereo not drawn) [Compound 199] ({NHPh-CO}-[X1]LDVP-NH2; configuration not given here) stands 50 to 10000 nM; under `Cc1ccccc1NC(=O)Nc1ccc(CC(=O)NC(CC(C)C)C(=O)NC(CC(=O)O)C(=O)NC(C(=O)O)c2ccccc2)cc1` (stereo not drawn) [Compound 207], 50 to 10000 nM; under `Cc1ccccc1NC(=O)Nc1ccc(CC(=O)N[C@@H](CC(C)C)C(=O)N[C@@H](CC(=O)O)C(=O)N[C@@H](Cc2c[nH]c3ccccc23)C(N)=O)cc1` [Compound 239], less than 50 nM.
Regarding `COc1nc(CC(=O)N[C@@H](CC(C)C)C(=O)N[C@@H](CC(=O)O)C(=O)N[C@H](C(=O)N2CCC[C@H]2C(=O)O)C(C)C)ccc1NC(=O)Nc1ccccc1C` [Compound 4] ({NH(2-Me-phenyl)-CO}-[X4]LDVP-OH), the half-inhibitory concentration (IC50) was less than 50 nM.
